Measured values published in patent US12150971B2, “Method and composition for preventing and treating Covid-19 and long Covid” (priority 2021, dated 2024).

Tested on: xCT
Assay: Western blot of xCT in THP-1-derived macrophages
Format: cell-based, human
Conditions: 5 mM NAC 1 h pretreatment, then 100 μg/ml Virofree 6 or 24 h
Protocol: The cells were exposed to different treatments for the indicated time, the cells were lysed on ice with lysis buffer. The cell lysate was cleared by centrifugation at 12,000 g for 10 min. The lysate was resolved by sodium dodecyl sulfate-polyacrylamide gel electrophoresis, and the proteins were transferred to a polyvinylidene fluoride membrane. After blocking with 5% non-fat dry milk in Tris-buffered saline, the membrane was incubated overnight with the desired primary antibody (FPN (Novus Biologicals, NBP1-21502, 1:1000), FTH-1 (Cell signaling, 4393S, 1:1000), GPX4 (Abcam, ab125066, 1:1000), TFRC (Cell signaling, 13208s, 1:1000), xCT (Cell signaling, 17681s, 1:1000), GAPDH (GeneTex, GTX100118, 1:10,000), α-SMA (Abcam, ab5694, 1:1000), Fibronectin (Santa Cruz, sc-9068, 1:1000), N-cadherin (BD, 610920, 1:1000), β-actin (GeneTex, GTX109639, 1:10000)). Subsequently, the membrane was incubated with an appropriate secondary antibody. Immunoreactive bands were visualized using the enhanced chemiluminescence (ECL) method and captured by a Luminescence Imaging system (LAS 4000™, Fuji Photo Film Co. Ltd).

## CC(=O)N[C@@H](CS)C(=O)O [N-acetyl cysteine]
  xCT expression mediated by Virofree after NAC pretreatment: significantly decrease
